Literature values, collected in patent publication US20030136407A1, “Liquid composition to be vaporized for inhibiting increase in blood sugar level, vaporizer for the same and use of the same” (priority 1999, published 2003).

Tested on: Ehrlich Ascites Tumour Cells
Details: in vitro; Chem. Pharm. Bull. 41(12) 2129-2131 (1993)

Q: With `C[C@H]1[C@H](C)CC[C@]2(C(=O)O)CC[C@]3(C)C(=CC[C@@H]4[C@@]5(C)C[C@@H](O)[C@H](O)C(C)(C)[C@@H]5CC[C@]43C)[C@H]12` [corosolic acid] as the molecule, how does the “activation of the mobility of grape sugar” value read?
A: activates the mobility of grape sugar
